Results on 31 compounds are retold here after patent US9382197B2, “Substituted hydroxamic acids and uses thereof” (Millennium Pharmaceuticals, Inc., priority 2010, dated 2016).

SMILES strings stand for the structures.

The first assay deals with T1, purified human HDAC6 (Homo sapiens, UniProt Q9UBN7).
T1 construct: purchased BPS Bioscience 5006
T1 sequence (Q9UBN7 1-1215): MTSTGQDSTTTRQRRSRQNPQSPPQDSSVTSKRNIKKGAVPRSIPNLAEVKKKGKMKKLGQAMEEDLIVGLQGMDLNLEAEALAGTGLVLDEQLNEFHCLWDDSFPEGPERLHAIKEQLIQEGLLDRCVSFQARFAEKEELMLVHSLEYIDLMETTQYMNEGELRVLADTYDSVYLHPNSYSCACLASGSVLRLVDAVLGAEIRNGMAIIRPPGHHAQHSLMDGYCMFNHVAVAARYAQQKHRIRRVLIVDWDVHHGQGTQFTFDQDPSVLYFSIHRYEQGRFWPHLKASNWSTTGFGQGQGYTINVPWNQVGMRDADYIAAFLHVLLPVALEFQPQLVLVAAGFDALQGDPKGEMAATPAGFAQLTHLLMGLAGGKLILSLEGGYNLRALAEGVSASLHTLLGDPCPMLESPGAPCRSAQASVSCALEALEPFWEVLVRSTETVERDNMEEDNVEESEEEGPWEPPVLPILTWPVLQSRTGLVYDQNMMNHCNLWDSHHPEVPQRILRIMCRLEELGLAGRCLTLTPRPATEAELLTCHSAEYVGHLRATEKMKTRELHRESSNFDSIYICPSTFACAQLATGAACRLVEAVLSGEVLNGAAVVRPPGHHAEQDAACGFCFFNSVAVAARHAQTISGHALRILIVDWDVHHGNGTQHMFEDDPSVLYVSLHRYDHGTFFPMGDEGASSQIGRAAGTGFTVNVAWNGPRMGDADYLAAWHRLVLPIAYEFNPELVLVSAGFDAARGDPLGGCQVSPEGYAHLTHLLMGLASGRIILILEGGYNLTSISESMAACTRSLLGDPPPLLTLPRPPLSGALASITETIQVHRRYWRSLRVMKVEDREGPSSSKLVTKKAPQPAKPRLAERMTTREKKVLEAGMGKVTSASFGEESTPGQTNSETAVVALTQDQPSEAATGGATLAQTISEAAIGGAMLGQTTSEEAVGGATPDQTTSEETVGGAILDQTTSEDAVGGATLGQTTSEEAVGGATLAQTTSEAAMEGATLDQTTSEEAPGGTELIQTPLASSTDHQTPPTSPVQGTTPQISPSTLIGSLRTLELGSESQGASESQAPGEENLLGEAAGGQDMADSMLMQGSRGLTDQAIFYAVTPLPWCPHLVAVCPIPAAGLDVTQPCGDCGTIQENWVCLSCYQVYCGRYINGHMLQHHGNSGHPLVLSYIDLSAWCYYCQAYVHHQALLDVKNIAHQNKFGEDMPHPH
Nature of the assay: HDAC6 Enzyme Assay. To be noted: bin: greater than 500 nM and less than 1 μM (lower bound in nM, upper bound in μM). Type of assay: biochemical. How it is done: To measure the inhibition of HDAC6 activity, purified human HDAC6 (BPS Bioscience; Cat. No. 5006) is incubated with substrate Ac-Arg-Gly-Lys(Ac)-AMC peptide (Bachem Biosciences; Cat. No. 1-1925) for 1 hour at 30° C. in the presence of test compounds or vehicle DMSO control. The reaction is stopped with the HDAC inhibitor trichostatin A (Sigma; Cat. No. T8552) and the amount of Arg-Gly-Lys-AMC generated is quantitated by digestion with trypsin (Sigma; Cat. No. T1426) and subsequent measurement of the amount of AMC released using a fluorescent plate reader (Pherastar; BMG Technologies) set at Ex 340 nm and Em 460 nm. Concentration response curves are generated by calculating the fluorescence increase in test compound-treated samples relative to DMSO-treated controls, and enzyme inhibition (IC50) values are determined from those curves.
As usually defined, the IC50 is the concentration needed to halve the response being measured. A higher IC50 goes with weaker potency in that assay. In turn, `Cc1cc(C(=O)NC(c2ccc(C(=O)NO)cc2)C(C)(C)C)c(C)o1` (stereo not shown) [Compound I-9, N-(1-{4-[(hydroxyamino)carbonyl]phenyl}-2,2-dimethylpropyl)-2,5-dimethyl-3-furamide] showed an IC50 of 500 to 1000 nM.
Same read-out and setting: for `CC(NC(=O)Cc1csc2ccc(Cl)cc12)c1cccc(C(=O)NO)c1` (stereo not shown) [Compound I-13, 3-(1-{[(5-chloro-1-benzothien-3-yl)acetyl]amino}ethyl)-N-hydroxybenzamide] the value was 500 to 1000 nM; for `Cc1cc(C)c(CC(=O)NC(c2ccc(C(=O)NO)cc2)C(C)C)c(C)c1` (stereo not shown) [Compound I-28, N-hydroxy-4-{1-[(mesitylacetyl)amino]-2-methylpropyl}benzamide], 500 to 1000 nM.
For the compound `Cc1nc(C(=O)NC(C)c2cccc(C(=O)NO)c2)cs1` (stereo not shown) [Compound I-29, N-(1-{3-[(hydroxyamino)carbonyl]phenyl}ethyl)-2-methyl-1,3-thiazole-4-carboxamide], the IC50 was in the range of 500 to 1000 nM.

Still in this assay, the particulars now being: bin: greater than 1 μM.
`CC(NC(=O)Cc1c(F)cccc1Cl)c1ccc(C(=O)NO)cc1` (stereo not shown) [Compound I-24, 4-(1-{[(2-chloro-6-fluorophenyl)acetyl]amino}ethyl)-N-hydroxybenzamide] registered an IC50 above 1000 nM.
As for `COc1ccccc1CC(=O)NC(C)c1ccc(C(=O)NO)cc1` (stereo not shown) [Compound I-34, N-hydroxy-4-(1-{[(2-methoxyphenyl)acetyl]amino}ethyl)benzamide], the IC50 was above 1000 nM.

Still in this assay, the particulars now being: purified human HDAC6, substrate Ac-Arg-Gly-Lys(Ac)-AMC, 1 hour at 30° C.; reported as bins.
Consider `CCS(=O)(=O)NC(C)c1ccc(C(=O)NO)cc1` (stereo not shown) [Compound I-1, 4-{1-[(ethylsulfonyl)amino]ethyl}-N-hydroxybenzamide], for which the IC50 was 100 to 500 nM.
`CC(NS(=O)(=O)c1ccc(F)cc1)c1ccc(C(=O)NO)cc1` (stereo not shown) [Compound I-2, 4-(1-{[(4-fluorophenyl)sulfonyl]amino}ethyl)-N-hydroxybenzamide] returned an IC50 of 100 to 500 nM.
Turning to `CC(NC(=O)C12CC3CC(CC(C3)C1)C2)c1ccc(C(=O)NO)cc1` (stereo not shown) [Compound I-3, N-(1-{4-[(hydroxyamino)carbonyl]phenyl}ethyl)adamantane-1-carboxamide], the IC50 was below 100 nM.
On to `CC(C)(C)C(NC(=O)c1cc2ccccc2o1)c1ccc(C(=O)NO)cc1` (stereo not shown) [Compound I-4, N-(1-{4-[(hydroxyamino)carbonyl]phenyl}-2,2-dimethylpropyl)-1-benzofuran-2-carboxamide], for which the IC50 was below 100 nM.
The same measure, in the same setting: with `C[C@@H](NC(=O)c1cc2oc(-c3ccccc3)cc2n1C)c1ccc(C(=O)NO)cc1` [Compound I-5, N-((1R)-1-{4-[(hydroxyamino)carbonyl]phenyl}ethyl)-4-methyl-2-phenyl-4H-furo[3,2-b]pyrrole-5-carboxamide] the figure was below 100 nM.
The compound `CC(NC(=O)Nc1cccc2ccccc12)c1ccc(C(=O)NO)cc1` (stereo not shown) [Compound I-6, N-hydroxy-4-(1-{[(1-naphthylamino)carbonyl]amino}ethyl)benzamide] came in with an IC50 below 100 nM.
On the same count and under the same terms, for `Cc1c(C(=O)NC(C)c2ccc(C(=O)NO)cc2)oc2ccccc12` (stereo not shown) [Compound I-7, N-(1-{4-[(hydroxyamino)carbonyl]phenyl}ethyl)-3-methyl-1-benzofuran-2-carboxamide] the value was below 100 nM; for `Cc1ccc(F)c(C(=O)NC(C)c2ccc(C(=O)NO)cc2)c1` (stereo not shown) [Compound I-8, 2-fluoro-N-(1-{4-[(hydroxyamino)carbonyl]phenyl}ethyl)-5-methylbenzamide], below 100 nM.
As to `CC(NC(=O)c1c[nH]c2ccccc12)c1cccc(C(=O)NO)c1` (stereo not shown) [Compound I-10, N-(1-{3-[(hydroxyamino)carbonyl]phenyl}ethyl)-1H-indole-3-carboxamide], the IC50 was in the range of 100 to 500 nM.
The same measure, in the same setting: with `CC(C)C(NC(=O)c1ccc(-c2ccccc2)cc1)c1ccc(C(=O)NO)cc1` (stereo not shown) [Compound I-11, N-(1-{4-[(hydroxyamino)carbonyl]phenyl}-2-methylpropyl)biphenyl-4-carboxamide] the figure was below 100 nM.
`Cc1c(C(=O)N[C@H](C)c2ccc(C(=O)NO)cc2)sc2ccccc12` [Compound I-12, N-((1R)-1-{4-[(hydroxyamino)carbonyl]phenyl}ethyl)-3-methyl-1-benzothiophene-2-carboxamide] returned an IC50 below 100 nM.
`CCC[C@@H](NC(=O)C12CC3CC(CC(C3)C1)C2)c1ccc(C(=O)NO)cc1` [Compound I-15, N-((1R)-1-{4-[(hydroxyamino)carbonyl]phenyl}butyl)adamantane-1-carboxamide] had an IC50 below 100 nM.
`C[C@@H](NC(=O)c1cc2oc(-c3ccccc3)cc2n1C)c1cccc(C(=O)NO)c1` [Compound I-16, N-((1R)-1-{3-[(hydroxyamino)carbonyl]phenyl}ethyl)-4-methyl-2-phenyl-4H-furo[3,2-b]pyrrole-5-carboxamide] showed an IC50 of 100 to 500 nM.
On the same count and under the same terms, for `Cc1nc(-c2ccccc2)ncc1C(=O)NC(c1ccc(C(=O)NO)cc1)C(C)C` (stereo not shown) [Compound I-17, N-(1-{4-[(hydroxyamino)carbonyl]phenyl}-2-methylpropyl)-4-methyl-2-phenylpyrimidine-5-carboxamide] the value was 100 to 500 nM; for `CCC[C@@H](NC(=O)NC12CC3CC(CC(C3)C1)C2)c1ccc(C(=O)NO)cc1` [Compound I-18, 4-[(1R)-1-({[1-adamantylamino]carbonyl}amino)butyl]-N-hydroxybenzamide], below 100 nM; for `COc1ccc(C(=O)N[C@@H](c2ccc(C(=O)NO)cc2)C(C)C)cc1` [Compound I-19, N-((1R)-1-{4-[(hydroxyamino)carbonyl]phenyl}-2-methylpropyl)-4-methoxybenzamide], below 100 nM.
Consider `CC(NC(=O)Nc1ccc(Oc2ccccc2)cc1)c1ccc(C(=O)NO)cc1` (stereo not shown) [Compound I-20, N-hydroxy-4-[1-({[(4-phenoxyphenyl)amino]carbonyl}amino)ethyl]benzamide], for which the IC50 fell in the range of 100 to 500 nM.
The same measure, in the same setting: for `CC(NC(=O)C1CCC1)c1ccc(C(=O)NO)cc1` (stereo not shown) [Compound I-21, 4-{1-[(cyclobutylcarbonyl)amino]ethyl}-N-hydroxybenzamide] the value was 100 to 500 nM; for `CC(C)[C@@H](NC(=O)c1cc2ccccc2o1)c1ccc(C(=O)NO)cc1` [Compound I-22, N-((1R)-1-{4-[(hydroxyamino)carbonyl]phenyl}-2-methylpropyl)-1-benzofuran-2-carboxamide], below 100 nM; for `COc1cccc(S(=O)(=O)NC(C)c2ccc(C(=O)NO)cc2)c1` (stereo not shown) [Compound I-23, N-hydroxy-4-(1-{[(3-methoxyphenyl)sulfonyl]amino}ethyl)benzamide], 100 to 500 nM.
`C[C@H](NC(=O)c1cccn1C)c1ccc(C(=O)NO)cc1` [Compound I-25, N-((1S)-1-{4-[(hydroxyamino)carbonyl]phenyl}ethyl)-1-methyl-1H-pyrrole-2-carboxamide]: the IC50 is below 100 nM.
`C[C@@H](NC(=O)C1(C)CCCCC1)c1ccc(C(=O)NO)cc1` [Compound I-26, N-hydroxy-4-((1R)-1-{[(1-methylcyclohexyl)carbonyl]amino}ethyl)benzamide] came in with an IC50 below 100 nM.
`CC(C)C(NC(=O)c1cccn1C)c1ccc(C(=O)NO)cc1` (stereo not shown) [Compound I-30, N-(1-{4-[(hydroxyamino)carbonyl]phenyl}-2-methylpropyl)-1-methyl-1H-pyrrole-2-carboxamide] showed an IC50 below 100 nM.
Take `CC(NC(=O)Nc1ccccc1Oc1ccccc1)c1ccc(C(=O)NO)cc1` (stereo not shown) [Compound I-31, N-hydroxy-4-[1-({[(2-phenoxyphenyl)amino]carbonyl}amino)ethyl]benzamide]: the IC50 was below 100 nM.
The same measure, in the same setting: with `CC(C)C(NC(=O)c1cc2ccccc2o1)c1ccc(C(=O)NO)cc1` (stereo not shown) [Compound I-32, N-(1-{4-[(hydroxyamino)carbonyl]phenyl}-2-methylpropyl)-1-benzofuran-2-carboxamide] the figure was below 100 nM.
